# What was measured:
# [1] = tested on: bovine adrenal medullary microvascular endothelial cells; experiment: Recovery of endothelial cells after tunicamycin treatment (parental line); format: cell-based
# Protocol: If the behavior of tunicamycin observed here is truly anti-angiogenic and is not due to cytotoxicity then cells must recover following a tunicamycin treatment that is shorter in duration, and the concentrations are moderate. […] On the other hand, the recovery was quantitative from a 24 hour exposure to tunicamycin at all concentrations (data not shown).
# [2] = tested on: bovine adrenal medullary microvascular endothelial cells; experiment: Cell cycle and apoptosis by flow cytometry (propidium iodide); format: cell-based
# Protocol: Regarding flow cytometry, assessment of the cell cycle was determined by propidium iodide staining of fixed cell nuclei followed by flow cytometry in a FacSort (Beckton Dickinson) according to the method of Krishan (1975) as modified by Vindelov (1977), as discussed in KRISHAN, “Rapid Flow Cytofluorometric Analysis of Mammalian Cell Cycle by Propidium Iodide Staining”, J. Cell Biol., 66:188-193 (1975); and VINDELOV, “Flow Cytometric Analysis of Nuclear DNA in Cells from Solid Tumors and Cell Suspensions”, Virchows Arch (B), 24:227-231(1977), the disclosures of which are herein incorporated by reference in their entireties. Briefly, cells were trypsinized, and pelleted by centrifugation at 900 rpm in a bench top centrifuge (Sorvall T6000B). After washing twice with PBS the cell pellet was resuspended in propidium iodide-buffer (PI-buffer; 10 mM Tris-HCl, pH 8.0 containing 10 mM NaCl, 0.7 μM PI, 700 units/liter RNase, and 0.1% (v/v) NP-40), kept in ice for 30 minutes and then fixed with 2% (v/v) paraformaldehyde. After FacSort calibration, 3000 events were counted per sample. Acquisition and analysis of data were carried out by using Cell Quest flow cytometry software (Macintosh-based). Gates: M1=G0/G1, M2=S, M3=G2+M, M4=apoptosis.
# Proliferation and Differentiation of Capillary Endothelial Cells: 2.0×10^4 cells were seeded per well in 24-well clusters in 1 ml complete EMEM containing 10% (v/v) serum and allowed to grow for 72 hours. Media were removed and the cells were washed twice with phosphate-buffer saline, pH 7.4 (PBS). Cells were synchronized by incubating for 48 hours in 2 mM hydroxyurea in serum-free EMEM with glutamine (2 mM) and one-third of penicillin-streptomycin used in a regular culture condition, followed by incubating 24 hours in serum-free EMEM, as discussed in CAO et al., “Modified Method of Mammalian Cell Synchronization Improves Yield and Degree of Synchronization”, Exp. Cell Res., 193:405-410 (1991), the disclosure of which is herein incorporated by reference in its entirety. Cells were routinely monitored by light microscopy. For proliferation assay, cells were trypsinized and counted in a hemacytometer. Viability of cells was determined by trypan blue (0.4% (v/v)) exclusion. Statistical analysis was carried out by StatView II software (Macintosh). Quantitation of cellular differentiation was carried out by observing under a Nikon AlphaShot inverted microscope, and counting the number of capillary lumen-like structures in five randomly selected fields per sample. The results were expressed as percent of its corresponding control after normalization of cell numbers. Analysis of Cell Cycle by Flow Cytometry: Assessment of the cell cycle was determined by propidium iodide staining of fixed cell nuclei followed by flow cytometry in a FacSort (Beckton Dickinson) according to the method of Krishan (1975) as modified by Vindelov (1977), as discussed in KRISHAN, “Rapid Flow Cytometric Analysis of Mammalian Cell Cycle by Propidium Iodide Staining”, J. Cell Biol. 66:188-195 (1975); and VINDELOV, “Flow Cytometric Analysis of Nuclear DNA in Cells from Solid Tumors and Cell Suspensions”, Virchows Arch (B), 24:227-231 (1977), the disclosures of which are herein incorporated by reference in their entireties. Briefly, cells were trypsinized, and pelleted by centrifugation at 900 rpm in a bench top centrifuge (Sorvall T6000B). After washing twice with PBS the cell pellet was resuspended in propidium iodide-buffer (PI-buffer; 10 mM Tris-HCl, pH 8.0 containing 10 mM NaCl, 0.7 μM PI, 700 units/liter RNase, and 0.1% (v/v) NP-40), kept in ice for 30 minutes and then fixed with 2% (v/v) paraformaldehyde. After FacSort calibration, 3000 events were counted per sample. Acquisition and analysis of data were carried out by using Cell Quest flow cytometry software (Macintosh-based). Gates: M1 G0/G1, M2=S, M3=G2+M, M4=apoptosis.
# protein N-glycosylation = settings: control cells and isoproterenol-treated cells, BANERJEE et al. (1993); cited from earlier work
substance,measurement,setting,value
tunicamycin,recovery of cells in 5 days,[1]; 10 ng/ml tunicamycin for 48 hours,full recovery
same,recovery of cells,[1]; 1 μg/ml tunicamycin for 48 hours,approximately 40%
same,recovery of cells,[1]; 10 μg/ml tunicamycin for 48 hours,12%
same,recovery of cells,[1]; 24 hour exposure to tunicamycin at all concentrations (data not shown),quantitative
same,recovery of cells,[1]; tunicamycin for 72 hours or longer at 1 μg/ml or 10 μg/ml,never recovered
same,completion of the cell cycle,[2]; 1 μg/ml tunicamycin,never completed the cell cycle
same,cell population entered into apoptosis,"[2]; 1 μg/ml tunicamycin, 32 hours exposure, synchronized cells, EMEM 2% (v/v) FBS",~70%
same,apoptosis by flow cytometric analysis (in words),[2]; in the presence of tunicamycin,underwent apoptosis
same,glycosylation,protein N-glycosylation,reduced glycosylation
